Target: T1, Class 1 phosphodiesterase PDEB1 (Trypanosoma brucei) (UniProt Q8WQX9)
T1 sequence (whole entry): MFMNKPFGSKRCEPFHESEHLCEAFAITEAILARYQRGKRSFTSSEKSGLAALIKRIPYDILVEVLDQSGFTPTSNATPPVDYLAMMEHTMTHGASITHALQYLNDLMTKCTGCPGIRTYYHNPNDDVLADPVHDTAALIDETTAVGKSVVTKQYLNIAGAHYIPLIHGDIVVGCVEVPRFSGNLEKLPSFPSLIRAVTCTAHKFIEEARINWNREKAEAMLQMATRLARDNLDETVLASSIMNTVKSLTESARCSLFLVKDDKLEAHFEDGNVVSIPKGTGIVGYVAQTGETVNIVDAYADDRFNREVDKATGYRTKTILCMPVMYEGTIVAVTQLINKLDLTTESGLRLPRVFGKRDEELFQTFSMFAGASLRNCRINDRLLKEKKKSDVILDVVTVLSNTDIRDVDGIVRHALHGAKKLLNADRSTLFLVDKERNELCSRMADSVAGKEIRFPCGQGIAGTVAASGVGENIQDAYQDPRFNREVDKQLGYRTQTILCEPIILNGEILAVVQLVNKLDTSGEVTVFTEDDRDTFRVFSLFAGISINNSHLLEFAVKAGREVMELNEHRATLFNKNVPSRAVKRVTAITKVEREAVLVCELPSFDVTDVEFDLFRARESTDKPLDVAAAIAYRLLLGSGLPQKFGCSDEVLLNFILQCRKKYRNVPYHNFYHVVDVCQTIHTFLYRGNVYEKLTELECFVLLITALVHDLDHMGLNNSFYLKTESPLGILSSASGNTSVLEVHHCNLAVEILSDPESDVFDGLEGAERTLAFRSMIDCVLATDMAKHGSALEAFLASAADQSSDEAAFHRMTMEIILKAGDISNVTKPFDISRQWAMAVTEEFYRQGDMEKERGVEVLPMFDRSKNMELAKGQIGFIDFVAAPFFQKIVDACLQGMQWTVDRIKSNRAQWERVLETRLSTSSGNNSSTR
Experiment: Inhibition of Trypanosoma brucei PDEB1 using cAMP as substrate at 100 uM preincubated for 10 mins prior substrate addition by spectrophotometry

Row | inhibition | SMILES
1 | 9.4% | CN1CC(=O)N2C(c3cccnc3)c3[nH]c4ccccc4c3C[C@@H]2C1=O (stereo partly drawn)
2 | 0% | CN1CC(=O)N2[C@H](c3ccc4c(c3)OCO4)c3[nH]c4ccccc4c3C[C@@H]2C1=O

The remaining lines, values behind:

Row | SMILES | inhibition
3 | NC(=O)[C@H]1Cc2c([nH]c3ccccc23)[C@@H](c2ccc3c(c2)OCO3)N1 | 19.5%
4 | CC1NC(C(N)=O)Cc2c1[nH]c1ccccc21 (stereo not drawn) | 13.3%
5 | CC(=O)N1CCc2c([nH]c3ccccc23)C1c1ccc2c(c1)OCO2 (stereo not drawn) | 17%
6 | NC(=O)[C@H]1Cc2c([nH]c3ccccc23)[C@H](c2ccc3c(c2)OCO3)N1 | 0%

Tested on: not listed separately
Experiment: Solubility of the compound at higher concentration
Format: physicochemical

Row | solubility | SMILES
7 | Insoluble | CN1CC(=O)N2[C@@H](c3ccc4c(c3)OCO4)c3[nH]c4ccc(-c5ccn[nH]5)cc4c3C[C@@H]2C1=O

Target: T1, Class 1 phosphodiesterase PDEB1 (Trypanosoma brucei)
Experiment: Inhibition of Trypanosoma brucei PDEB1 using cAMP as substrate at 10 uM preincubated for 10 mins prior substrate addition by spectrophotometry

Row | inhibition | SMILES
8 | 0% | CC(=O)NCC1c2[nH]c3ccccc3c2C[C@@H]2C(=O)N(C)CC(=O)N12 (stereo partly drawn)
9 | 6.09% | CN1CC(=O)N2C(CNCc3cccnc3)c3[nH]c4ccccc4c3C[C@@H]2C1=O (stereo partly drawn)
10 | 38.8% | CN1CC(=O)N2[C@@H](c3ccc4c(c3)OCO4)c3[nH]c4ccccc4c3C[C@@H]2C1=O
11 | 11.8% | CN1CC(=O)N2[C@H](c3ccc4c(c3)OCO4)c3[nH]c4ccc(Br)cc4c3C[C@@H]2C1=O
12 | 71.8% | CN1CC(=O)N2[C@@H](c3ccc4c(c3)OCO4)c3[nH]c4ccc(-c5ccn[nH]5)cc4c3C[C@@H]2C1=O
13 | 0% | Cc1n[nH]cc1C(=O)NCC1c2[nH]c3ccccc3c2C[C@@H]2C(=O)N(C)CC(=O)N12 (stereo partly drawn)
14 | 11.6% | CN1CC(=O)N2[C@@H](c3ccc4c(c3)OCO4)c3[nH]c4ccc(Br)cc4c3C[C@@H]2C1=O
15 | 21.2% | CN1CC(=O)N2C(CNC(=O)OCc3ccccc3)c3[nH]c4ccccc4c3C[C@@H]2C1=O (stereo partly drawn)

Further lines, the compound ahead of its results:

Row | SMILES | inhibition
16 | NC(=O)[C@H]1Cc2c([nH]c3ccccc23)C(c2cccnc2)N1 (stereo partly drawn) | 22.6%
17 | CN1CC(=O)N2[C@@H](c3ccc4c(c3)OCO4)c3c(c4ccccc4n3C)C[C@@H]2C1=O | 19.7%
18 | CN1CC(=O)N2[C@H](c3ccc4c(c3)OCO4)c3c(c4ccccc4n3C)C[C@@H]2C1=O | 6.9%
